Source: ChEMBL document CHEMBL1909046, “DrugMatrix in vitro pharmacology data”

Key:
[1] = DRUGMATRIX: Calcium Channel Type L, Benzothiazepine radioligand binding (ligand: [3H] Diltiazem); assay type: cell membranes, Rattus norvegicus, Wistar, Brain, Membrane; conditions: Not Active = under 50% inhibition at 10 µM
[2] = target: T1, Alpha-2A adrenergic receptor (Homo sapiens, UniProt P08913); assay type: cell membranes, Sf9, Membrane; further: in other assays of this panel Not Active means under 50% inhibition at 10 µM
T1 sequence (P08913 whole entry): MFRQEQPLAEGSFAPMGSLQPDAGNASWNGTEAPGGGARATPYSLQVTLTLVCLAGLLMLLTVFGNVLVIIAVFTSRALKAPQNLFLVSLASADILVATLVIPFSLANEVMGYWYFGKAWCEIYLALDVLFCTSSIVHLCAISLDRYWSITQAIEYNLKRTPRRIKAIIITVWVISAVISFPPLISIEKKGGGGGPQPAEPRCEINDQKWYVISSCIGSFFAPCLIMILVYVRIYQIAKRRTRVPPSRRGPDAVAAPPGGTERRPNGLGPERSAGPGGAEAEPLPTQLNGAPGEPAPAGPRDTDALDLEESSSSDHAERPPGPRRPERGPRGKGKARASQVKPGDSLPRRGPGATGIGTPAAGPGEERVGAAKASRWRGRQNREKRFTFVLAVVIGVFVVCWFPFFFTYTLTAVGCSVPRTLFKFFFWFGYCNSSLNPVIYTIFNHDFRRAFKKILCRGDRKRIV

Melanocortin receptor 3 = Melanocortin receptor 3 (Homo sapiens, UniProt P41968); assay type: cell membranes, HEK293, Membrane; conditions: hek293; further: in other assays of this panel Not Active means under 50% inhibition at 10 µM
Chain of Melanocortin receptor 3 (P41968 whole entry): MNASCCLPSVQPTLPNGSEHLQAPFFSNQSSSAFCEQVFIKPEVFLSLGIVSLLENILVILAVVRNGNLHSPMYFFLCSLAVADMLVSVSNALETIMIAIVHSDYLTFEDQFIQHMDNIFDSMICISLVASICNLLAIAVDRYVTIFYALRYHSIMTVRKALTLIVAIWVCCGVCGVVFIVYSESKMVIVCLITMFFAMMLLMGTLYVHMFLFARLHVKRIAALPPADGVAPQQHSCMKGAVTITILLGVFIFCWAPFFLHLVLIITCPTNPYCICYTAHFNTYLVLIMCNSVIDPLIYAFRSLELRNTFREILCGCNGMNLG

Cytochrome P450 2D6 = Cytochrome P450 2D6 (Homo sapiens, UniProt P10635); conditions: bti-tn-5b1-4; further: in other assays of this panel Not Active means under 50% inhibition at 10 µM
Chain of Cytochrome P450 2D6 (P10635 whole entry): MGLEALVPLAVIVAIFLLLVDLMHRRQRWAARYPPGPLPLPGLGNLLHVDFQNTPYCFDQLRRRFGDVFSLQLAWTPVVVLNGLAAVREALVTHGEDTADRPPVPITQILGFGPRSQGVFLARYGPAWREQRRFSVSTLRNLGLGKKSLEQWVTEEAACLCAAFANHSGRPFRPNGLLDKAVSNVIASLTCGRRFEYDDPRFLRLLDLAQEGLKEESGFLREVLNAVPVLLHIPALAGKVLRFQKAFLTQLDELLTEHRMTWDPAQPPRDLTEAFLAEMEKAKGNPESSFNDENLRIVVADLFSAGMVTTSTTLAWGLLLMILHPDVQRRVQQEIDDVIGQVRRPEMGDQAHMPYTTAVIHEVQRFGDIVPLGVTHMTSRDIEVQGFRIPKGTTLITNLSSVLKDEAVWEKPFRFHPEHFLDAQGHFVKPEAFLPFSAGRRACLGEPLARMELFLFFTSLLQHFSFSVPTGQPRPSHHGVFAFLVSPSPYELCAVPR

Cytochrome P450 1A2 = target: T2, Cytochrome P450 1A2 (Homo sapiens, UniProt P05177); conditions: bti-tn-5b1-4; further: in other assays of this panel Not Active means under 50% inhibition at 10 µM
T2 sequence (P05177 whole entry): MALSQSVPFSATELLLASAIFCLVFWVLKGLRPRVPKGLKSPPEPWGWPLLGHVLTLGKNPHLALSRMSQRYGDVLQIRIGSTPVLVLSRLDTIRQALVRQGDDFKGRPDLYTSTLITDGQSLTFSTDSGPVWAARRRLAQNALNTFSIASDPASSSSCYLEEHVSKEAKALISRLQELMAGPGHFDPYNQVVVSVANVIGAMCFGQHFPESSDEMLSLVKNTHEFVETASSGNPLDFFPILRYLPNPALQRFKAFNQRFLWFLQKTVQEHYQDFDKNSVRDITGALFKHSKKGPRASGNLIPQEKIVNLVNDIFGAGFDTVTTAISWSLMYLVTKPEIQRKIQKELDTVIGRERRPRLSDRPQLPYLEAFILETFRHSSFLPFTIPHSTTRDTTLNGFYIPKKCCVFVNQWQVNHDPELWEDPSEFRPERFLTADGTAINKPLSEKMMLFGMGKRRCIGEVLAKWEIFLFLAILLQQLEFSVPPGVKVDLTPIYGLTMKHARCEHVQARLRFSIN

[3] = target: Platelet-activating factor receptor (Homo sapiens, UniProt P25105); assay type: tissue-based; further: in other assays of this panel Not Active means under 50% inhibition at 10 µM
Chain of Platelet-activating factor receptor (P25105 whole entry): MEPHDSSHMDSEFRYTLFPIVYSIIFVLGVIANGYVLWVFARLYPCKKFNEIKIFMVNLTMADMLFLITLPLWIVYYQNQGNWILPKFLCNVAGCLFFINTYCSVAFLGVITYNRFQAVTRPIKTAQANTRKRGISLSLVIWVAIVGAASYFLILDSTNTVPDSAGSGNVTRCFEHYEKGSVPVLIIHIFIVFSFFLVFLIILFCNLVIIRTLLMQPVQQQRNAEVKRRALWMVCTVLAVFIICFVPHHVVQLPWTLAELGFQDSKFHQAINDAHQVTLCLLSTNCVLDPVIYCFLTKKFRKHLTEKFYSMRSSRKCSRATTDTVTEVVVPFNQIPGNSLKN

Neutrophil elastase = target: T3, Neutrophil elastase (Homo sapiens, UniProt P08246); assay type: tissue-based
T3 sequence (P08246 whole entry): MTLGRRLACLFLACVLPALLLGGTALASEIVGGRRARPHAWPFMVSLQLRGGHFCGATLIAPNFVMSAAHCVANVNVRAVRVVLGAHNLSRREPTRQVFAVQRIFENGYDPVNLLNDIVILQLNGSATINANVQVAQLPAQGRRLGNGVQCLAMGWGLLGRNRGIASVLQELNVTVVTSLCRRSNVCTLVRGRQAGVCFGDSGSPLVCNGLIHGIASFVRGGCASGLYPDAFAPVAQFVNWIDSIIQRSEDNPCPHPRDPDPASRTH

| Molecule | IC50 [1] | Ki [1] | IC50 ([2]; sf9) | IC50 (Melanocortin receptor 3) | IC50 (Cytochrome P450 2D6) | Ki (Cytochrome P450 2D6) | IC50 (Cytochrome P450 1A2) | Ki (Cytochrome P450 1A2) | IC50 [3] | IC50 (Neutrophil elastase) | IC50 ([1]; read-out: IC50) [nM] | Ki ([1]; read-out: Ki) [nM] | IC50 ([2]; read-out: IC50) [nM] | Ki ([2]; read-out: Ki) [nM] | Ki ([2]; sf9) | Ki (Melanocortin receptor 3) | Ki [3] | Ki (Neutrophil elastase) |
| --- | --- | --- | --- | --- | --- | --- | --- | --- | --- | --- | --- | --- | --- | --- | --- | --- | --- | --- |
| NS(=O)(=O)c1cc2c(cc1Cl)NC(C(Cl)Cl)NS2(=O)=O (stereo not given) [TRICHLORMETHIAZIDE] | Not Active | Not Active | Not Active | Not Active | Not Active | Not Active | Not Active | Not Active | Not Active | Not Active |  |  |  |  |  |  |  |  |
| CC(C)N1CCN(c2ccc(OCC3COC(Cn4cncn4)(c4ccc(Cl)cc4Cl)O3)cc2)CC1 (stereo not given) [TERCONAZOLE] |  |  |  | Not Active | Not Active | Not Active | Not Active | Not Active | Not Active | Not Active | 3010 | 2670 | 983 | 369 |  |  |  |  |
| CC(C)(C)NC(=O)[C@@H]1C[C@@H]2CCCC[C@@H]2CN1C[C@@H](O)[C@H](Cc1ccccc1)NC(=O)[C@H](CC(N)=O)NC(=O)c1ccc2ccccc2n1 |  |  | Not Active | Not Active | Not Active | Not Active | Not Active | Not Active | Not Active | Not Active | 10900 | 9690 |  |  |  |  |  |  |
| SODIUM NITROPRUSSIDE | Not Active | Not Active | Not Active | Not Active | Not Active | Not Active | Not Active | Not Active | Not Active | Not Active |  |  |  |  | Not Active | Not Active | Not Active | Not Active |
| NC[C@H]1CC[C@H](C(=O)O)CC1 [TRANEXAMIC ACID] | Not Active | Not Active | Not Active | Not Active | Not Active | Not Active | Not Active | Not Active | Not Active | Not Active |  |  |  |  |  |  |  |  |
| N[C@@H]1[C@H]2CN(c3nc4c(cc3F)c(=O)c(C(=O)O)cn4-c3ccc(F)cc3F)C[C@@H]12 [TROVAFLOXACIN] | Not Active | Not Active | Not Active | Not Active | Not Active | Not Active | Not Active | Not Active | Not Active | Not Active |  |  |  |  |  |  |  |  |
| Cc1cccc(N(C)C(=S)Oc2ccc3ccccc3c2)c1 [TOLNAFTATE] | Not Active | Not Active | Not Active | Not Active | Not Active | Not Active | Not Active | Not Active | Not Active | Not Active |  |  |  |  |  |  |  |  |
| Cc1c(C)c2c(c(C)c1O)CCC(C)(COc1ccc(CC3SC(=O)NC3=O)cc1)O2 (stereo not given) [TROGLITAZONE] | Not Active | Not Active | Not Active | Not Active | Not Active | Not Active | Not Active | Not Active | Not Active | Not Active |  |  |  |  |  |  |  |  |
| CCCOc1ccccc1-c1nc2nn[nH]c2c(=O)[nH]1 [ZAPRINAST] | Not Active | Not Active | Not Active | Not Active | Not Active | Not Active | Not Active | Not Active | Not Active | Not Active |  |  |  |  |  |  |  |  |
| CC[C@]1(O)C[C@H]2CN(CCc3c([nH]c4ccccc34)[C@@](C(=O)OC)(c3cc4c(cc3OC)N(C=O)[C@H]3[C@@](O)(C(=O)OC)[C@H](OC(C)=O)[C@]5(CC)C=CCN6CC[C@]43[C@@H]65)C2)C1 [VINCRISTINE] | Not Active | Not Active | Not Active | Not Active | Not Active | Not Active | Not Active | Not Active | Not Active | Not Active |  |  |  |  |  |  |  |  |
| COc1c(C)c2c(c(O)c1C/C=C(\C)CCC(=O)O)C(=O)OC2 [MYCOPHENOLIC ACID] | Not Active | Not Active | Not Active | Not Active | Not Active | Not Active | Not Active | Not Active | Not Active | Not Active |  |  |  |  |  |  |  |  |
| O=NN(CCCl)C(=O)NC1CCCCC1 [LOMUSTINE] | Not Active | Not Active | Not Active | Not Active | Not Active | Not Active | Not Active | Not Active | Not Active | Not Active |  |  |  |  |  |  |  |  |
